# Assay results taken from patent US5028626A, “Peptides with pharmaceutical activity” (Zambon Group S.p.A., priority 1988, dated 1991).
# Where a name gives a salt, the structure may show the parent alone.
# Experiments:
# [1] = test system: mouse splenic lymphocytes; assay: Immunostimulating (mitogenetic) activity: 3H-timidine incorporation in mouse splenic lymphocytes; type: cell-based, mouse (C3H/H2); conditions: compound at 1 μM; 48 h + 24 h incubation with 3H-TMD
# Protocol: (§1) The activity of the compounds of formula I has been evaluated as inhibitory effect on the activity of leucineaminopeptidase and as stimulating effect on the mitogenetic activity of mouse splenic lymphocytes.
# The immunostimulating activity has been evaluated as ability to stimulate the incorporation of ^3 H-timidine (^3 H-TMD) in a culture of mouse splenic lymphocytes.
# The splenic cells were drawn form C3H/H2 mice (age: 6-8 weeks) and suspended in RPMI-1640 medium containing HEPES 20 mM and 10% bovine fetal serum (inactivated to heat) at the concentration of 5×10^6 cells/ml.
# Cells were sowed of Microtest plates (Falcon 3072) in the absence and in the presence of different concentrations of the compounds of formula I in a volume of 0.2 ml of medium.
# After an incubation period of 48 hours at 37° C. in humidified environment at 5% CO2 /O2, 0.5 microCi of ^3 H-TMD (specific activity 2 Ci/mmoles) were added and the incubation was protracted for further 24 hours.
# Cells were collected by filtration (Tretertek Cell Harnester) and the incorporated radioactivity was measured by Packard TRI-CARB 4530 scintillator.
# The mitogenetic effect was expressed as percentage increase in the incorporation of ^3 H-TMD in lymphocytes incubated with the compounds of formula I at the concentration of 1 μM with respect to the basal incorporation value.
# [2] = molecular target: T1, purified aminopeptidase obtained from hog kidney (leucineaminopeptidase) (Sus scrofa, UniProt P28839); assay: Inhibitory effect on leucineaminopeptidase activity (L-leucinamide hydrolysis, absorbance at 238 nm); type: biochemical; conditions: leucineamide 50 mM, tris-HCl pH 8.5, MgCl2 5 mM, 25° C., read-out: IC50 (concentration of the compound inducing a 50% decrease of the enzymatic activity)
# T1 construct: a purified aminopeptidase obtained from hog kidney; purchased Baehringer (so in the source); host or cells: hog kidney tissue
# T1 sequence (P28839 1-519): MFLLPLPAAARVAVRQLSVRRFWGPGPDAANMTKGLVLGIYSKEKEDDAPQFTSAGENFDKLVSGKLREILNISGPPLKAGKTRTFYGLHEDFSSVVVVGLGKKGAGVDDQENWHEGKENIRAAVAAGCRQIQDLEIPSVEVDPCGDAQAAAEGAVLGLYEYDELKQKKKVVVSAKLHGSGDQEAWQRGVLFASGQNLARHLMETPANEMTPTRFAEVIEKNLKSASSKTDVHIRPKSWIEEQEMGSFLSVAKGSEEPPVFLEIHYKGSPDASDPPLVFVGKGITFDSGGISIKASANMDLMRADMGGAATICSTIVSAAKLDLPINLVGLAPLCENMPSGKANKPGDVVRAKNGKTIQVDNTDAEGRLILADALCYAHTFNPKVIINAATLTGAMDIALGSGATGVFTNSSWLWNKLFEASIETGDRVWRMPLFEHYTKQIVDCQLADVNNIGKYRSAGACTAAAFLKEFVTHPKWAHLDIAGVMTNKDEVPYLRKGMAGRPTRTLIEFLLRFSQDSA
# Description: as §1
# The inhibitory effect of the tested compounds has been evaluated on a purified aminopeptidase obtained from hog kidney (Baehringer, 100U/mg).
# The enzymatic activity was estimated spectrophotometrically by using L-leucinamide as substrate and by measuring the hydrolysis of the peptide bond as decrease of absorbance at 238 nm.
# The enzyme was activated prior to assay at 37° C. for 2 hours, in the presence of MgCl2 1 mM and tris-HCl buffer 20 mM pH 8.5 in a total volume of 2.5 ml.
# The enzymatic reaction was followed at 238 nm for at least 30 minutes at 25° C. in 2.5 ml of an incubation medium containing 50 μg of enzyme, leucineamide 50 mM, tris-HCl buffer 20 mM pH 8.5 and MgCl2 5 mM in the absence or in the presence of increasing concentrations of the tested compound.
# The inhibitory effect was expressed as the concentration of the compound inducing a 50% decrease of the enzymatic activity (IC50, nmoles/1).
IC50 [2],SMILES,percentage increase in the incorporation of 3H-TMD in lymphocytes with respect to the basal incorporation value [1]
,"CC(C)C[C@H](NC(=O)[C@H](O)[C@@H](N)Cc1ccc(S(C)(=O)=O)cc1)C(=O)O [Example 4, N-[(2R,3S)-3-amino-2-hydroxy-4-(4-methylsulfonylphenyl)-butanoyl]-L-leucine]",109%
11 nM,"CSc1ccc(C[C@@H](N)[C@H](O)C(=O)N[C@@H](CC(C)C)C(=O)O)cc1 [Example 11, N-[(2S,3R)-3-amino-2-hydroxy-4-(4-methylthiophenyl)-butanoyl]-L-leucine hydrobromide]",
10 nM,"CC(C)C[C@H](NC(=O)[C@@H](O)[C@H](N)Cc1ccc(S(C)(=O)=O)cc1)C(=O)O [Example 3, N-[(2S,3R)-3-amino-2-hydroxy-4-(4-methylsulfonylphenyl)-butanoyl]-L-leucine]",
